System: DOCA-Na. rat
Assay: Comparative antihypertensive activity of polyether ionophores in the DOCA-Na rat (Example 3, Table III)
Assay type: in vivo
Conditions: oral, five-day period, daily dose 1/100 of oral LD50 up to 10 mg/kg/day
Procedure: Using bromolasalocid as a standard for comparison, a number of polyether ionophores were tested for antihypertensive activity. The tests were conducted utilizing single oral dosages in the DOCA-Na. rat over a five-day period with dosing discontinued thereafter. Blood pressure monitoring was carried out for the five-day period and daily after cessation of dosing until blood pressure returned to pre-drug levels. […] The daily dosage was calculated by using one-one hundredth (1/100) of the oral (per os) toxicity (LD50) up to a maximum of 10 mg/kg/day. The antihypertensive activity expressed as AHR (Subacute antihypertensive ratio) was calculated using bromolasalocid as the standard reference (Table III).

## CC[C@@H](C(=O)[C@@H](C)[C@@H](O)[C@H](C)CCc1c(Br)cc(C)c(O)c1C(=O)O)[C@H]1O[C@](CC)([C@H]2CC[C@](O)(CC)[C@H](C)O2)C[C@@H]1C [bromolasalocid]
  ONSET TO MAX. RESPONSE: 4 days
Monitored until return to pre-drug levels
  DURATION OF EFFECT: 15 days

From US4161520A, “Method of treating hypertension” (priority 1976, dated 1979)
